From US20230026232A1, “AHR INHIBITORS AND USES THEREOF” (Ikena Oncology, Inc., priority 2019, published 2023)
pIC50: −log10 of the molar value. “Also recorded” adds a separate entry of the source.

Key:
AHR = biological target: T1, AHR (Mus musculus, UniProt P30561); assay: AHR-dependent Cyp1A1 expression (P450-Glo) in mouse Hepa1.6 cells stimulated with VAF347; type: cell-based; details: read-out: IC50, AHR-dependent expression of Cyp1A1; murine Hepa1.6 cells, 2 μM VAF347, 24 hours, average
T1 sequence (P30561 10-805): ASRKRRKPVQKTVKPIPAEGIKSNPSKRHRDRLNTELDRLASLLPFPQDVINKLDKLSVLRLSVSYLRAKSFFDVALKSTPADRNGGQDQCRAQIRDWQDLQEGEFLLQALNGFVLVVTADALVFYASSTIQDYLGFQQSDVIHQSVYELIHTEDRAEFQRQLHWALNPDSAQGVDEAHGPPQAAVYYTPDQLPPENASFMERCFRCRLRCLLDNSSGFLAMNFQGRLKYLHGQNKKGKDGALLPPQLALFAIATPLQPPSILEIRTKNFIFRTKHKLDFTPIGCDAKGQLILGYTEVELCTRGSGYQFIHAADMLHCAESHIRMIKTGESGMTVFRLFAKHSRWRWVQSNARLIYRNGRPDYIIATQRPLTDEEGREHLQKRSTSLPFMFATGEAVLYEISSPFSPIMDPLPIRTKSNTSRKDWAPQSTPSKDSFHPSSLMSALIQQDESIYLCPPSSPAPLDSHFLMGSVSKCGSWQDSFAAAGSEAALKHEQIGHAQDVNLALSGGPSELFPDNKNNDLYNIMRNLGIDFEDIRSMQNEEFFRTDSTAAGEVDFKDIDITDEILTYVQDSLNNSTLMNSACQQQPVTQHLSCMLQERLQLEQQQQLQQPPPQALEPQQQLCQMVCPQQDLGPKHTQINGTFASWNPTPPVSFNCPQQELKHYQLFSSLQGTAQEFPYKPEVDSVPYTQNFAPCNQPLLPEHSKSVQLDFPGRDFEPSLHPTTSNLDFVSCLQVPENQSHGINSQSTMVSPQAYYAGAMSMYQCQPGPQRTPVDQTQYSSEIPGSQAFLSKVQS
Experimental: The ability of Compound A to inhibit AHR-dependent Cyp1A1 gene expression was examined in vitro by measuring changes in Cyp1A1 enzymatic activity in 2 rodent hepatoma cell lines following AHR agonist stimulation. Mouse Hepa1.6 and rat H411E hepatoma cells were treated with AHR agonists VAF347 and L-kynurenine, respectively, in the presence of Compound A at multiple concentrations for 24 hours. The inhibition of Cyp1A1 expression was subsequently evaluated by measuring Cyp1A1 enzyme activity using P450-Glo assays.

human T cell = assay: Human T cell assays: pro-inflammatory cytokines; type: cell-based
Excerpt: Compound A is a selective AHR antagonist being developed as an orally administered therapeutic. […] Compound A inhibits CYP1A1 and interleukin (IL)-22 gene expression and leads to an increase in pro-inflammatory cytokines, such as IL-2 and IL-9.

[1] = Phase 1 dose-escalation study: safety; type: in vivo; details: 200 mg, 400 mg, 800 mg, and 1200 mg QD, human patients, fed state
Excerpt: This is a first-in-human (FIH), single-arm, dose-escalation and expansion study to evaluate the safety, tolerability, PK, pharmacodynamics, and preliminary antitumor activity of Compound A administered orally in patients with advanced solid tumors and urothelial carcinoma. Subject enrollment and continuous safety assessment will be guided by a mTPI-2 design (Guo, 2017). Decisions for dose escalation and de-escalation will be made by a Safety Review Committee (SRC) comprised of the enrolling study Investigators and the Sponsor. To assess evidence of preliminary antitumor activity, a Simon 2-stage design (Simon, 1989) is used.
Toxicity is evaluated according to National Cancer Institute Common Terminology Criteria for Adverse Events (AEs) (NCI-CTCAE) v5.0. DLT events are defined herein. AEs will be assessed, and laboratory values (chemistry, hematology, coagulation, thyroid function and urinalysis as specified herein), vital signs, and 12-lead triplicate electrocardiograms (ECGs) are obtained to evaluate the safety and tolerability of Compound A.
A modified Toxicity Probability Interval (mTPI-2) design (Guo, 2017) with a target DLT rate of approximately 30% is applied for dose escalation and confirmation to determine the Compound A RP2D. Several dose levels of Compound A, planned from 200 mg QD to 1600 mg daily, are explored. […]

Question: Which results are given for `CC(C)c1cnn2c(N[C@@H]3CCc4[nH]c5ccccc5c4C3)nc(-c3cncc(F)c3)nc12` [Compound A, (R)—N-(2-(5-fluoropyridin-3-yl)-8-isopropylpyrazolo[1,5-a][1,3,5]triazin-4-yl)-2,3,4,9-tetrahydro-1H-carbazol-3-amine]?
Answer: pIC50 (AHR): 7.44; pro-inflammatory cytokines, such as IL-2 and IL-9 (human T cell): increase; serious adverse events (SAEs) [1]: without any drug-related serious adverse events; also recorded: no serious adverse events
